Measurements from patent US4001272A, “Herbicidal 2-fluoro-4-halo-phenyl-4,5,6,7-tetrahydro-2H-isoindole-1,3-diones” (E. I. Du Pont de Nemours and Company, priority 1974, dated 1977).

How the values were obtained:
Assay type in all cases: in vivo
[1] = test system: crabgrass (Digitaria sanquinalis); experiment: Test B: overall spray in carrot field after weed emergence, percent control of crabgrass; details: six weeks after treatment, 0.1% Tween 20
Text: (§1) Test B involved a field sown to carrots and in which the following weed species emerged naturally: crabgrass (Digitaria sanquinalis), foxtails (Setaria spp.), barnyardgrass (Echinochloa crusgalli), pigweed (Amaranthus spp.), ragweed (Ambrosia artemisiifolia), velvetleaf (Abutilon theophrasti), smartweed (Polygonum spp.) and lambsquarters (Chenopodium album). Sixteen days after sowing, when all species of weeds had emerged, the plants were sprayed overall with a 50% wettable powder formulation of 2-(4-chloro-2-fluorophenyl)4,5,6,7-tetrahydro-2H-isoindole-1,3dione (Treatment I) in the form of an aqueous suspension, at rates of 0.5, 1.0, 2.0 and 4.0 kg/ha, and with 2-(4-chlorophenyl)-4,5,6,7-tetrahydro-2H-isoindole-1,3-dione (Treatment II) in the same form and at the same rates. The spray volume was 425 l/ha. The surfactant Tween 20* was added to all treatments in a concentration of 0.1% by weight. Six weeks after treatment, visual observations were made of percent weed control obtained and, for carrots, crop response.
(§2) *Tween 20 -- A trademark of ICI of America which is the reaction product of sorbitan monolaurate with an average of 20 moles of ethylene oxide.

[2] = test system: ragweed (Ambrosia artemisiifolia); experiment: Test B: overall spray in carrot field after weed emergence, percent control of ragweed; details: six weeks after treatment, 0.1% Tween 20
Text: as §1, §2

[3] = test system: velvetleaf (Abutilon theophrasti); experiment: Test B: overall spray in carrot field after weed emergence, percent control of velvetleaf; details: six weeks after treatment, 0.1% Tween 20
Text: as §1, §2

[4] = test system: smartweed (Polygonum spp.); experiment: Test B: overall spray in carrot field after weed emergence, percent control of smartweed; details: six weeks after treatment, 0.1% Tween 20
Text: as §1, §2

[5] = test system: lambsquarters (Chenopodium album); experiment: Test B: overall spray in carrot field after weed emergence, percent control of lambsquarters; details: six weeks after treatment, 0.1% Tween 20
Text: as §1, §2

foxtail (Setaria spp.) = experiment: Test C: preemergence weed control in rice, foxtail; details: 29 days after treatment
Text: (§3) In test A, soybeans, peanuts, lima beans, green beans and squash were planted in a field infested with the following weed seeds: crabgrass (Digitaria sanquinalis), foxtails (Setaria spp.), barnyardgrass (Echinochloa crusgalli), pigweed (Amaranthus spp.), ragweed (Ambrosia artemisiifolia), velvetleaf (Abutilon theophrasti), purslane (Portulaca oleracea) and flower-of-an-hour (Hibiscus trionum). A 50% wettable powder formulation of 2-(4-chloro-2-fluorophenyl)-4,5,6,7-tetrahydro-2H-isoindole-1,3-dione was applied in the form of an aqueous suspension at rates of 0.125, 0.25, 0.5 and 1.0 kg/ha, each treatment replicated twice. The plots were rated for percent weed control and crop response seven weeks after treatment. Crop response was expressed on a scale of 0 = no injury to 10 = complete kill.
(§4) Test C concerned preemergence weed control in rice. The field selected contained seeds of the following weed species: crabgrass (Digitaria sanquinalis), foxtail (Setaria spp.), barnyardgrass (Echinochloa crusgalli), pigweed (Amaranthus spp.), ragweed (Ambrosia artemisiifolia), velvetleaf (Abutilon theophrasti), purslane (Portulaca oleracea) and flower-of-an-hour (Hibiscus trionum). Two varieties of rice, CSM-3 and Nato, were planted at depths of both 1 and 2 cm. In addition, rice seedlings of both varieties were transplanted into the field to be treated. Immediately thereafter, the plot was treated with an aqueous suspension of 2-(4-chloro-2-fluorophenyl)-4,5,6,7-tetrahydro-2H-isoindole-1,3-dione (Treatment I) at rates of 0.125 and 0.25 kg/ha, and an aqueous suspension of 2-(4-chlorophenyl)-4,5,6,7-tetrahydro-2H-isoindole-1,3dione (Treatment II) at rates of 0.25, 0.50, 1.00 and 2.00 kg/ha. The test chemicals had been formulated as 50% wettable powders. Overall spray volume was 540 l/ha. Ratings of percent weed control obtained and crop response were made 29 days after treatment, as described for test A. The ratings are summarized in the following Table III.

[6] = test system: ragweed (Ambrosia artemisiifolia); experiment: Test C: preemergence weed control in rice, ragweed; details: 29 days after treatment
Text: as §3, §4

[7] = test system: purslane (Portulaca oleracea); experiment: Test C: preemergence weed control in rice, purslane; details: 29 days after treatment
Text: as §3, §4

[8] = test system: flower-of-an-hour (Hibiscus trionum); experiment: Test C: preemergence weed control in rice, flower-of-an-hour; details: 29 days after treatment
Text: as §3, §4

rice, variety CSM-3 = experiment: Test C: crop response of rice CSM-3; details: 29 days, 0 = no injury to 10 = complete kill; for Crop Response, Rice CSM-3, 1 cm: planting depth 1 cm; for Crop Response, Rice CSM-3, 2 cm: planting depth 2 cm; for Crop Response, Rice CSM-3, T: transplanted
Text: (§5) In test A, soybeans, peanuts, lima beans, green beans and squash were planted in a field infested with the following weed seeds: crabgrass (Digitaria sanquinalis), foxtails (Setaria spp.), barnyardgrass (Echinochloa crusgalli), pigweed (Amaranthus spp.), ragweed (Ambrosia artemisiifolia), velvetleaf (Abutilon theophrasti), purslane (Portulaca oleracea) and flower-of-an-hour (Hibiscus trionum). […] The plots were rated for percent weed control and crop response seven weeks after treatment. Crop response was expressed on a scale of 0 = no injury to 10 = complete kill.
(§6) Test C concerned preemergence weed control in rice. The field selected contained seeds of the following weed species: crabgrass (Digitaria sanquinalis), foxtail (Setaria spp.), barnyardgrass (Echinochloa crusgalli), pigweed (Amaranthus spp.), ragweed (Ambrosia artemisiifolia), velvetleaf (Abutilon theophrasti), purslane (Portulaca oleracea) and flower-of-an-hour (Hibiscus trionum). Two varieties of rice, CSM-3 and Nato, were planted at depths of both 1 and 2 cm. In addition, rice seedlings of both varieties were transplanted into the field to be treated. […] The test chemicals had been formulated as 50% wettable powders. Overall spray volume was 540 l/ha.

rice, variety Nato = experiment: Test C: crop response of rice Nato; details: 29 days, 0 = no injury to 10 = complete kill; for Crop Response, Rice Nato, 1 cm: planting depth 1 cm; for Crop Response, Rice Nato, 2 cm: planting depth 2 cm; for Crop Response, Rice Nato, T: transplanted
Text: as §5, §6

O=C1C2=C(CCCC2)C(=O)N1c1ccc(Cl)cc1 [Treatment II, 2-(4-chlorophenyl)-4,5,6,7-tetrahydro-2H-isoindole-1,3-dione]
% Control, Crabgrass ([1]; 0.5 kg/ha): 0%
% Control, Crabgrass ([1]; 1.0 kg/ha): 20%
% Control, Crabgrass ([1]; 2.0 kg/ha): 40%
% Control, Crabgrass ([1]; 4.0 kg/ha): 60%
% Control, Ragweed ([2]; 0.5 kg/ha): 50%
% Control, Ragweed ([2]; 1.0 kg/ha): 70%
% Control, Ragweed ([2]; 2.0 kg/ha): 90%
% Control, Ragweed ([2]; 4.0 kg/ha): > 99%
% Control, Velvetleaf ([3]; 0.5 kg/ha): 70%
% Control, Velvetleaf ([3]; 1.0 kg/ha): 80%
% Control, Velvetleaf ([3]; 2.0 kg/ha): 100%
% Control, Velvetleaf ([3]; 4.0 kg/ha): 100%
% Control, Smartweed ([4]; 0.5 kg/ha): 70%
% Control, Smartweed ([4]; 1.0 kg/ha): 80%
% Control, Smartweed ([4]; 2.0 kg/ha): 80%
% Control, Smartweed ([4]; 4.0 kg/ha): 99%
% Control, Lambsquarters ([5]; 0.5 kg/ha): 70%
% Control, Lambsquarters ([5]; 1.0 kg/ha): 80%
% Control, Lambsquarters ([5]; 2.0 kg/ha): 99%
% Control, Lambsquarters ([5]; 4.0 kg/ha): 99%
% Control, Foxtail (foxtail (Setaria spp.); 0.25 kg/ha): 99%
% Control, Foxtail (foxtail (Setaria spp.); 0.50 kg/ha): 100%
% Control, Foxtail (foxtail (Setaria spp.); 1.0 kg/ha): 100%
% Control, Foxtail (foxtail (Setaria spp.); 2.0 kg/ha): 100%
% Control, Ragweed ([6]; 0.25 kg/ha): 100%
% Control, Ragweed ([6]; 0.50 kg/ha): 100%
% Control, Ragweed ([6]; 1.0 kg/ha): 100%
% Control, Ragweed ([6]; 2.0 kg/ha): 100%
% Control, Purslane ([7]; 0.25 kg/ha): 100%
% Control, Purslane ([7]; 0.50 kg/ha): 100%
% Control, Purslane ([7]; 1.0 kg/ha): 100%
% Control, Purslane ([7]; 2.0 kg/ha): 100%
% Control, Flower-of-an-Hour ([8]; 0.25 kg/ha): 98%
% Control, Flower-of-an-Hour ([8]; 0.50 kg/ha): 100%
% Control, Flower-of-an-Hour ([8]; 1.0 kg/ha): 100%
% Control, Flower-of-an-Hour ([8]; 2.0 kg/ha): 100%
Crop Response, Rice CSM-3, 1 cm (rice, variety CSM-3; 0.25 kg/ha): 4
Crop Response, Rice CSM-3, 2 cm (rice, variety CSM-3; 0.25 kg/ha): 1
Crop Response, Rice CSM-3, T (rice, variety CSM-3; 0.25 kg/ha): 0
Crop Response, Rice CSM-3, 1 cm (rice, variety CSM-3; 0.50 kg/ha): 5
Crop Response, Rice CSM-3, 2 cm (rice, variety CSM-3; 0.50 kg/ha): 2
Crop Response, Rice CSM-3, T (rice, variety CSM-3; 0.50 kg/ha): 0
Crop Response, Rice CSM-3, 1 cm (rice, variety CSM-3; 1.0 kg/ha): 7
Crop Response, Rice CSM-3, 2 cm (rice, variety CSM-3; 1.0 kg/ha): 4
Crop Response, Rice CSM-3, T (rice, variety CSM-3; 1.0 kg/ha): 0
Crop Response, Rice CSM-3, 1 cm (rice, variety CSM-3; 2.0 kg/ha): 10
Crop Response, Rice CSM-3, 2 cm (rice, variety CSM-3; 2.0 kg/ha): 7
Crop Response, Rice CSM-3, T (rice, variety CSM-3; 2.0 kg/ha): 1
Crop Response, Rice Nato, 1 cm (rice, variety Nato; 0.25 kg/ha): 5
Crop Response, Rice Nato, 2 cm (rice, variety Nato; 0.25 kg/ha): 0
Crop Response, Rice Nato, T (rice, variety Nato; 0.25 kg/ha): 1
Crop Response, Rice Nato, 1 cm (rice, variety Nato; 0.50 kg/ha): 8
Crop Response, Rice Nato, 2 cm (rice, variety Nato; 0.50 kg/ha): 1
Crop Response, Rice Nato, T (rice, variety Nato; 0.50 kg/ha): 1
Crop Response, Rice Nato, 1 cm (rice, variety Nato; 1.0 kg/ha): 9
Crop Response, Rice Nato, 2 cm (rice, variety Nato; 1.0 kg/ha): 4
Crop Response, Rice Nato, T (rice, variety Nato; 1.0 kg/ha): 1
Crop Response, Rice Nato, 1 cm (rice, variety Nato; 2.0 kg/ha): 9
Crop Response, Rice Nato, 2 cm (rice, variety Nato; 2.0 kg/ha): 6
Crop Response, Rice Nato, T (rice, variety Nato; 2.0 kg/ha): 2
